The target in test [1] is T1, Protein deacetylase HDAC6 (Homo sapiens, UniProt Q9UBN7).
T1 sequence (Q9UBN7 whole entry): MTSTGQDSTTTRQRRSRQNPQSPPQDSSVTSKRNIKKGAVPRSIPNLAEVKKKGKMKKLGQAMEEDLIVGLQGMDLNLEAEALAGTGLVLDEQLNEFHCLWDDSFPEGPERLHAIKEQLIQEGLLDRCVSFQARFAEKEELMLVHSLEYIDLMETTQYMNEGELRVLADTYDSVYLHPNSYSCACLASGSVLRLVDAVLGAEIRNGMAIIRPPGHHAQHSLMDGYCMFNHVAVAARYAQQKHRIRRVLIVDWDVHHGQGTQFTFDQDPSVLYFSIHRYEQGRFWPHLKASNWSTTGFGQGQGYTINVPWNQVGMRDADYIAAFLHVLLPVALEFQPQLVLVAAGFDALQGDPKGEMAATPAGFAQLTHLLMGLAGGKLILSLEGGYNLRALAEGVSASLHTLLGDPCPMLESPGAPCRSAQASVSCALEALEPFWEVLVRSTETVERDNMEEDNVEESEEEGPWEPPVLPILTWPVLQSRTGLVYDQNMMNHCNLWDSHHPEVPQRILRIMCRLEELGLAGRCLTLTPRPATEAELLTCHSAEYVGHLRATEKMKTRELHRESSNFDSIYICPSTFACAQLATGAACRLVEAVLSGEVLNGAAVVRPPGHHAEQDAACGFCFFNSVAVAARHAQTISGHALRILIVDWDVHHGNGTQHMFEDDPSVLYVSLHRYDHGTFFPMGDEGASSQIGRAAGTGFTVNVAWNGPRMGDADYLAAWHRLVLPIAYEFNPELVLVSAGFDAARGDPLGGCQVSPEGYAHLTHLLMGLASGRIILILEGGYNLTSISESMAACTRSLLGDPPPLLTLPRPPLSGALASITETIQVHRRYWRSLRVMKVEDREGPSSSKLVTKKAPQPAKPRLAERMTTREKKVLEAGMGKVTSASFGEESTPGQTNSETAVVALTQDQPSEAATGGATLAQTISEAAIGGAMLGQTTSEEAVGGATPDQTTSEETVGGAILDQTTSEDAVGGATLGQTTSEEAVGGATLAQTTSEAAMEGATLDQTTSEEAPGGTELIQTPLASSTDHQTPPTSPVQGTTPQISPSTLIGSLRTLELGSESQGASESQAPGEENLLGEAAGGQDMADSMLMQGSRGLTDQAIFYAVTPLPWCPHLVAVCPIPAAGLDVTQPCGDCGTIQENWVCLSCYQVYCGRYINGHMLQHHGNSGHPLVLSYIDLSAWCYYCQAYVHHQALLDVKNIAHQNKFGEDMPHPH
Description: Inhibition of human recombinant HDAC6 using Boc-Lys(Ac)-AMC as substrate preincubated for 15 mins followed by substrate addition and measured after 60 mins by fluorescence based microplate reader analysis.

Test [2] is filed under the species Homo sapiens. Description: Selectivity index, ratio of IC50 for inhibition of human recombinant HDAC2 to IC50 for inhibition of human recombinant HDAC6.
Test [3] concerns the target T2, Histone deacetylase 2 (Homo sapiens, UniProt Q92769). Description: Inhibition of human recombinant HDAC2 extracted from baculovirus infected Sf9 insect cells using Ac-Leu-Gly-Lys(Ac)-AMC as substrate preincubated for 30 mins followed by substrate addition measured after 1 hr by fluorescence based analysis.
The target in test [4] is T3, Histone deacetylase 1 (Homo sapiens, UniProt Q13547). Description: Inhibition of human recombinant HDAC1 using Boc-Lys(Ac)-AMC or Boc-Lys(Tfa)-AMC as substrate incubated for 1 hr by fluorescence based analysis.
For test [5], the species on record is Homo sapiens. Description: Selectivity index, ratio of IC50 for inhibition of human recombinant HDAC1 to IC50 for inhibition of human recombinant HDAC6.
The subject of a further test is UO-31. Description: Antiproliferative activity against human UO-31 cells assessed as reduction in cell viability by MTT assay. The class given is functional, cell-based.
A further test relates to T47D. Description: Antiproliferative activity against human T47D cells assessed as reduction in cell viability by MTT assay. It is filed as functional, cell-based.
Test [6] concerns the target Tubulin. Description: Inhibition of tubulin polymerization (unknown origin) by fluorescence based assay. The class given is protein-complex assay, Homo sapiens.
Test [7] addresses T3, Histone deacetylase 1. Description: Inhibition of human recombinant FLAG/His-tagged HDAC1 using fluorogenic substrate by fluorescence microplate reader assay.
In test [8] the target is T1, Protein deacetylase HDAC6. Description: Inhibition of FLAG/His-tagged human recombinant HDAC6 extracted from baculovirus infected Sf9 cells […] by fluorescence based analysis.
For the next test, the system named is A2780. Description: Antitumor activity against human A2780 cells xenografted in BALB/c nude mouse assessed as tumor growth inhibition at 25 mg/kg, ip administered once daily for 1 week relative to control. The class given is functional. The conditions noted are these: A2780, 168 h, time 1 weeks, read-out: TGI.
For test [9], the system named is HCT-116. Description: Antitumor activity against human HCT-116 cells xenografted in BALB/c nude mouse assessed as tumor growth inhibition at 25 mg/kg, ip administered once daily for 1 week relative to control. The following applies: HCT-116, 168 h, time 1 weeks, read-out: TGI. The class given is functional.
Test [10] has as its system MCF7. Description: Antitumor activity against human MCF7 cells xenografted in BALB/c nude mouse assessed as tumor growth inhibition at 25 mg/kg, ip administered once daily for 1 week relative to control. The following applies: MCF7, 168 h, time 1 weeks, read-out: TGI. It is filed as functional.
Test [11] is described as follows: Inhibition of bovine brain tubulin polymerization measured after 20 mins by spectrophotometric analysis. Also on record: species or system Bos taurus.
In the next test the target is Tubulin (Homo sapiens) (UniProt P68371+Q9H4B7+P0DPH7+P68366+Q13509+Q71U36+P04350+Q3ZCM7+P07437+P68363+Q9BQE3+Q6PEY2+Q13885+Q9BVA1+Q9BUF5). Description: Inhibition of tubulin polymerization (unknown origin) at 10 uM relative to control. It is filed as protein-complex assay.
The test system of test [12] is HCT-116. Description: Antiproliferative activity against human HCT-116 cells assessed as reduction in cell viability by MTT assay. It is filed as functional, cell-based.
Another test deals with MGC-803. Description: Antiproliferative activity against human MGC-803 cells assessed as reduction in cell viability by MTT assay. The class given is functional, cell-based.
A further test deals with KYSE-450. Description: Antiproliferative activity against human KYSE-450 cells assessed as reduction in cell viability by MTT assay. The class given is functional, cell-based.
The target in test [13] is Tubulin. Description: Inhibition of tubulin polymerization (unknown origin). The class given is protein-complex assay, Homo sapiens.
Test [14] concerns the target T3, Histone deacetylase 1. Description: Inhibition of HDAC1 (unknown origin).
Test [15] deals with T2, Histone deacetylase 2. Description: Inhibition of human recombinant HDAC2 extracted from baculovirus infected Insect cells using Ac-Lys-Tyr-Lys (acetyl)-AMC as substrate incubated for 24 hrs by fluorescence analysis. Details: species or system Insect cell.
For test [16], the system named is HCT-116. Description: Antiproliferative activity against human HCT-116 cells assessed as reduction in cell viability incubated for 48 hrs by MTT assay. It is filed as functional, cell-based. The following applies: HCT-116, 48 h.
The test system of the next test is HL-60. Description: Antitumor activity against human HL-60 cells xenografted in nude mouse assessed as inhibition of tumor growth at 100 mg/kg, ip administered once daily for 7 days relative to control. The following applies: HL-60, 168 h, time 7 day, read-out: TGI. The class given is functional.
Test [17] deals with T1, Protein deacetylase HDAC6. Description: Inhibition of HDAC6 (unknown origin).
The subject of test [18] is PC-3. Description: Antiproliferative activity against human PC-3 cells assessed as reduction in cell viability incubated for 48 hrs by MTT assay. The class given is functional, cell-based. The following applies: PC-3, 48 h.
Test [19] concerns PC-3. Description: Antitumor activity against human PC-3 cells xenografted in nude mouse assessed as inhibition of tumor growth at 100 mg/kg, ip administered once daily for 7 days relative to control. It is filed as functional. The conditions noted are these: PC-3, 168 h, time 7 day, read-out: TGI.
The subject of test [20] is A549. Description: Antiproliferative activity against human A549 cells assessed as reduction in cell viability incubated for 48 hrs by MTT assay. The conditions noted are these: A549, 48 h. It is filed as functional, cell-based.
Test [21] concerns A549. Description: Cytotoxicity against human A549 cells assessed as reduction in cell growth measured for 72 hrs by MTT assay. The class given is functional, cell-based. The following applies: A549, 72 h.
For the next test, the system named is 518A2. Description: Antiproliferative activity against human 518A2 cells assessed as reduction in cell viability incubated for 72 hrs by MTT assay. The conditions noted are these: 518A2, 72 h. It is filed as functional, cell-based.
Test [22] has as its system MCF7. Description: Antiproliferative activity against human MCF7 cells assessed as reduction in cell viability incubated for 72 hrs by MTT assay. It is filed as functional, cell-based. The following applies: MCF7, 72 h.
For the next test, the system named is HepG2. Description: Antiproliferative activity against human HepG2 cells assessed as reduction in cell viability incubated for 72 hrs by MTT assay. The conditions noted are these: HepG2, 72 h. It is filed as functional, cell-based.

T3 sequence (Q13547 whole entry): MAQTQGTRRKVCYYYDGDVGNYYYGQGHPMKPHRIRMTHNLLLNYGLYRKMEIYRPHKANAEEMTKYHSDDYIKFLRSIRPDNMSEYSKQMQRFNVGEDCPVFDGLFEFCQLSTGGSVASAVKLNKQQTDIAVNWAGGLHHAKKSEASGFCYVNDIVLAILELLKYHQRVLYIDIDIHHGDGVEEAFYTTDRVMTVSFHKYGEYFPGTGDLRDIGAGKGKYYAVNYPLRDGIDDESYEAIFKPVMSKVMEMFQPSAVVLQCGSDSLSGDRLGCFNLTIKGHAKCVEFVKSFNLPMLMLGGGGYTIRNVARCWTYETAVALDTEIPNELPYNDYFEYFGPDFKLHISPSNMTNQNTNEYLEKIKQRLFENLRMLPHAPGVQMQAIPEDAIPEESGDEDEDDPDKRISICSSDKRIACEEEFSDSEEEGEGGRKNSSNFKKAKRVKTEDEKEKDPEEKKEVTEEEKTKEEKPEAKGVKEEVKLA
T2 sequence (Q92769 whole entry): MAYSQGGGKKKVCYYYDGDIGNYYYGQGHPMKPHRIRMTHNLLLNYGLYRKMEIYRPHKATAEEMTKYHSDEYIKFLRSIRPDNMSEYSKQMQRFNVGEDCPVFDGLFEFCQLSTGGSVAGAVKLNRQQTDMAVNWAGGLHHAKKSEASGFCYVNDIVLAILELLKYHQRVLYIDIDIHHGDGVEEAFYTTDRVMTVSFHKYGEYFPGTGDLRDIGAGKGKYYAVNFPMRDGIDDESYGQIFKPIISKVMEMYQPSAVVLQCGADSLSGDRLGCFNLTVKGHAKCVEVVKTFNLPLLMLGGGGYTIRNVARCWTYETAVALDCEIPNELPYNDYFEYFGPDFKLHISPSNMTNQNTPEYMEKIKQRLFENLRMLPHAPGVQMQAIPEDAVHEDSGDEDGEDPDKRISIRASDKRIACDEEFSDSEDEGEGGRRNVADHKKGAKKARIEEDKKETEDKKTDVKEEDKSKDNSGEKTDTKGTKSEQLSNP

Consider `COc1ccc2c(C(=O)c3cc(OC)c(OC)c(OO)c3)cn(Cc3ccc(C(=O)NO)cc3)c2c1`, for which the IC50 in test [1] was determined as 0.065 µM; at Histone deacetylase 2 [3], 1.41 µM; on Histone deacetylase 1 [4], 0.573 µM. For the same compound, the Ratio IC50 in the test listed under Homo sapiens [2] was determined as 21.8; in the test listed under Homo sapiens [5], 8.89.
With `CNC(=O)CCCCOc1nc(-c2ccc(OC)cc2)cc(-c2cc(OC)c(OC)c(OC)c2)c1C#N`, the 50% inhibitory concentration (IC50) in the test on UO-31 was 3.52 µM; in the test with T47D, 5.5 µM; at Tubulin [6] it was 3.52 µM; at Histone deacetylase 1 [7] it was 0.0732 µM; in test [8] it was 0.084 µM.
As to `COc1ccc(N(C)c2nc(C)nc3ccccc23)cc1OCCCC(=O)NO`, the inhibition in vivo at 25 mg/kg with A2780 is 77.4%; in the test on HCT-116 [9], 60.4%; in the test on MCF7 [10] it was 50.5%.
For the compound `COc1cccc(C(=O)c2oc3cc(OC)c(C#CC(=O)NO)cc3c2C)c1`, in test [11], inhibition was half-maximal at 0.42 µM (IC50).
`COc1ccc(-c2cccc(-c3cc(OC)c(OC)c(OC)c3)n2)cc1O` came in with an inhibition at Tubulin (Homo sapiens) of 32%.
In the case of `COc1ccc(CN(C(=O)CC2CCC(C(=O)Nc3ccccc3N)CC2)c2cc(OC)c(OC)c(OC)c2)cc1O` (stereo not given), the 50% inhibitory concentration (IC50) in the test on HCT-116 [12] amounted to 0.172 µM; in the test on MGC-803, 0.039 µM; in the test on KYSE-450 it was 0.254 µM; on Tubulin [13], 3.64 µM; on Histone deacetylase 1 [14], 0.525 µM.
Consider `COc1cc([C@@H]2c3cc4c(cc3C[C@H]3COC(=O)[C@@H]32)OCO4)cc(OC)c1OC(=O)CC(=O)Nc1ccc(C(=O)Nc2ccccc2N)cc1`, for which, on Histone deacetylase 2 [15], the 50% inhibitory concentration (IC50) is 1.73 µM.
Regarding `COc1ccc2c(C(=O)c3cc(OC)c(OC)c(OO)c3)cn(S(=O)(=O)c3cccc(/C=C/CC(=O)NO)c3)c2c1`, the IC50 in the test with HCT-116 [16] was 0.044 µM; in [17], 0.276 µM; in the test on PC-3 [18], 0.033 µM; in the test with A549 [20] it was 0.073 µM. Further, the inhibition in vivo at 100 mg/kg turned out to be 40.9% with HL-60 and 31.1% in the test on PC-3 [19].
In the case of `COc1cc([C@@H]2c3cc4c(cc3C[C@H]3COC(=O)[C@@H]32)OCO4)cc(OC)c1OC(=O)CC(=O)NCc1ccc(C(=O)Nc2ccccc2N)cc1`, in the test on A549 [21], the half-inhibitory concentration (IC50) amounted to 0.04 µM.
For `COc1ccc(-c2ocnc2-c2cc(Br)c(OC)c(OC)c2)cc1OCCCC(=O)NO`, in the test on 518A2, the concentration for half-maximal inhibition (IC50) is 0.71 µM.
Regarding `COc1ccc2c(C(=O)c3cc(OC)c(OC)c(OO)c3)c[nH]c2c1`, at Tubulin [13], the midpoint of inhibition, the IC50, lay at 2.8 µM.
For the compound `COc1cc(/C=C/C(=O)c2ccc(NC(=O)c3ccccc3CN3C(=O)c4ccccc4C3=O)cc2)cc(OC)c1OC`, the IC50 in the test on MCF7 [22] came out at 1.88 µM; with HepG2, 1.62 µM; against Tubulin [13], 2.32 µM.
On Tubulin [13], `COc1ccc(-c2cccc(-c3cc(OC)c(OC)c(OC)c3)n2)cc1CCC(=O)NO` showed an IC50 of 0.117 µM.
Still for that read-out and setting: in the case of `COc1ccc2c(C)c(C(=O)c3cc(OC)c(OC)c(OC)c3)oc2c1` it was 0.62 µM.
